Assay results as given in patent US12281304B2, “Compositions and methods for treating and preventing muscular disorders and dystrophies, steroid side effects, and inflammation” (Children's National Medical Center, priority 2018, dated 2025).

Tested on: miRNAs in diaphragm muscle of mdx mice
Assay: TaqMan low-density array (TLDA) miRNA profiling of diaphragm, discovery set (prophylactic mdx trial)
Type: in vivo, mouse
Excerpt: Archival muscle samples (diaphragm) from two separate preclinical studies were obtained, with each trial showing a significant benefit from both prednisolone and vamorolone drug treatments (23). Prednisolone was used because it is the active form of prednisone, the current DMD standard of care. The first, “discovery set” of diaphragm muscles was from a prophylactic trial design where 2-week old (postnatal day 15) mdx or wild type control mice received oral dosing for 6 weeks with vehicle (cherry syrup), prednisolone (5 mg/kg), or vamorolone (15 mg/kg) as previously reported (23). The second, “validation set” of diaphragm muscles was from an extended trial in older mice where mdx or wild type mice were subjected to treadmill running to unmask mild phenotypes. Mice in this validation set were treated with either vehicle, prednisolone (5 mg/kg) or vamorolone (45 mg/kg) for four months beginning at two months of age (23). At the endpoint of each trial, diaphragm muscles were harvested and frozen in liquid nitrogen-cooled isopentane.
We extracted total RNA from 5 diaphragm muscles per treatment group in the discovery set of samples from 8-week old mice. RNA was extracted using a modified TRIzol protocol with isopropanol precipitation at −20° C. overnight. This RNA was reverse transcribed to cDNA using a High Capacity cDNA Reverse Transcription Kit with RNase Inhibitor (ThermoFisher; Carlsbad, Calif.), with miRNA-specific Megaplex RT Primers, Rodent Pools Set version 3.0 (ThermoFisher; Carlsbad, Calif.). Levels of each of the miRNAs were profiled in the discovery set using TAQMAN Array Rodent MiRNA A+B Cards Set v3.0 (ThermoFisher; Carlsbad, Calif.).
In the discovery set experiments, levels of each miRNA were quantified in TaqMan low-density arrays using ThermoFisher Cloud software with the Relative Quantification Application (ThermoFisher; Carlsbad, Calif.) tool. Data was analyzed by ANOVA with post-hoc comparison of each group to the mdx vehicle-treated group. […] A P-value of P≤0.05 was set as the significance threshold, without adjustment for multiple comparisons. To reduce false-positive discovery in this setting, an evidence-based approach was used to identify efficacy associated miRNAs where 1) results from the multiple groups were cross-referenced, and 2) all candidate miRNAs identified in this discovery set were then assayed in a separate validation set of mice. For the validation set experiments, levels of each individual miRNA were assayed in samples from a second, independent preclinical trial in adult mdx mice. Data from individual TaqMan Assays was quantified using QuantStudio Real-Time PCR version 1.3 software (Applied Biosystems; Foster City, Calif.). The levels of all miRNAs were normalized to the geometric mean of multiple control genes (60, 70). Comparison of groups was made by ANOVA with Holm-Sidak post-hoc test comparing each group to mdx vehicle.
To visualize behavior of miRNAs within individual mice for each group, heat map images were generated. Heat maps were generated using Rq values of TLDA array data exported from the Relative Quantification Application of the ThermoFisher Cloud software (ThermoFisher; Carlsbad, Calif.) tool. Heat maps of miRNA expression were produced using Hierarchical Clustering Explorer Version 3.5 (at www.cs.umd.edu/hcil/multi-cluster/) produced by the Human Computer Interaction Laboratory (University of Maryland; College Park, Md.).
To examine miRNA expression TaqMan low density qPCR array cards were used to profile approximately 750 miRNAs within diaphragm muscle from a discovery set of mice. Samples for this experiment came from a trial that utilized a prophylactic approach (23). Briefly, mdx mice undergo a stage of peak severity characterized by widespread inflammation and necrosis from approximately 3-8 weeks of age, followed by a recovery stage where mice show milder phenotypes (25). […]

[1] = discovery set diaphragm muscle, mdx mice, Pred 5 mg/kg, Vam 15 mg/kg
[2] = mdx diaphragm, vs untreated mdx, Pred 5 mg/kg, Vam 15 mg/kg

C[C@]12C=CC(=O)C=C1CC[C@@H]1[C@@H]2[C@@H](O)C[C@@]2(C)[C@H]1CC[C@]2(O)C(=O)CO [prednisolone]
miRNA 142-3p % expression in comparison to mdx vehicle [1]: 50 ± 13 % | miRNA 142-5p % expression in comparison to mdx vehicle [1]: 44 ± 11 % | miRNA 146a % expression in comparison to mdx vehicle [1]: 39 ± 6 % | miRNA 301a % expression in comparison to mdx vehicle [1]: 70 ± 18 % | miRNA 324-3p % expression in comparison to mdx vehicle [1]: 71 ± 14 % | miRNA 455-3p % expression in comparison to mdx vehicle [1]: 62 ± 18 % | miRNA 455-5p % expression in comparison to mdx vehicle [1]: 64 ± 30 % | miRNA 497 % expression in comparison to mdx vehicle [1]: 49 ± 11 % | miRNA 652 % expression in comparison to mdx vehicle [1]: 62 ± 14 % | number of miRNAs significantly changed in dystrophic muscle (mdx diaphragm, 8-week-old mice, oral dosing 6 weeks, prednisolone 5 mg/kg, vamorolone 15 mg/kg, versus untreated mdx, P≤0.05): 76 | expression of 14q32 (mouse 12F1) cluster miRNAs miR-134, miR-370, miR-409, miR-433, miR-493, miR-543 (mdx diaphragm, discovery set, prednisolone 5 mg/kg): specifically activated | number of miRNAs significantly increased by treatment (mdx diaphragm, discovery set, prednisolone 5 mg/kg, vamorolone 15 mg/kg, P≤0.05): 9 | expression of the nine efficacy-associated miRNAs elevated in dystrophy (mdx diaphragm, discovery set, versus mdx vehicle): returned towards healthy wild type levels | Rq hsa-let-7i#-002172 [2]: 0.714 | Rq hsa-miR-30e-3p-000422 [2]: 0.739 | Rq hsa-miR-22#-002301 [2]: 0.641 | Rq hsa-miR-140-3p-002234 [2]: 0.681 | Rq hsa-miR-143-000466 [2]: 1.096 | Rq hsa-miR-154#-000478 [2]: 1.585 | Rq hsa-miR-190b-002263 [2]: 0.547 | Rq hsa-miR-200c-000505 [2]: 0.486 | Rq hsa-miR-206-000510 [2]: 1.017 | Rq hsa-miR-213-000516 [2]: 0.622 | Rq hsa-miR-214#-002293 [2]: 0.82 | Rq hsa-miR-214-000517 [2]: 0.767 | Rq hsa-miR-376a#-001287 [2]: 0.978 | Rq hsa-miR-455-001280 [2]: 0.6 | Rq hsa-miR-744#-002325 [2]: 0.537 | Rq mmu-let-7e-002406 [2]: 0.66 | Rq mmu-let-7a-000377 [2]: 0.491 | Rq mmu-let-7b-000378 [2]: 0.655 | Rq mmu-let-7c-1#-002479 [2]: 1.427 | Rq mmu-let-7c-000379 [2]: 0.651 | Rq mmu-let-7i-002221 [2]: 0.775 | Rq mmu-let-7d#-001178 [2]: 0.556 | Rq mmu-let-7d-002283 [2]: 0.714 | Rq mmu-miR-1-002222 [2]: 0.868 | Rq mmu-miR-15a-000389 [2]: 0.635 | Rq mmu-miR-16-000391 [2]: 0.663 | Rq mmu-miR-18a-002422 [2]: 1.284 | Rq mmu-miR-19a-000395 [2]: 0.846 | Rq mmu-miR-20a#-002491 [2]: 0.771 | Rq mmu-miR-21#-002493 [2]: 0.707 | Rq mmu-miR-21-000397 [2]: 0.659 | Rq mmu-miR-23b-000400 [2]: 0.621 | Rq mmu-miR-25-000403 [2]: 0.75 | Rq mmu-miR-26a-000405 [2]: 0.7 | Rq mmu-miR-27b-000409 [2]: 0.796 | Rq mmu-miR-28-000411 [2]: 0.759 | Rq mmu-miR-30e-002223 [2]: 0.785 | Rq mmu-miR-30a-000417 [2]: 0.756 | Rq mmu-miR-30b-000602 [2]: 0.785 | Rq mmu-miR-30c-000419 [2]: 0.739 | Rq mmu-miR-31#-002495 [2]: 0.955 | Rq mmu-miR-31-000185 [2]: 1.028 | Rq mmu-miR-34a-000426 [2]: 0.712 | Rq mmu-miR-34b-3p-002618 [2]: 0.607 | Rq mmu-miR-34c#-002584 [2]: 0.623 | Rq mmu-miR-34c-000428 [2]: 0.655 | Rq mmu-miR-99b-000436 [2]: 0.783 | Rq mmu-miR-100-000437 [2]: 0.586 | Rq mmu-miR-103-000439 [2]: 0.679 | Rq mmu-miR-122-002245 [2]: 0.241 | Rq mmu-miR-125a-3p-002199 [2]: 0.666 | Rq mmu-miR-125b#-002508 [2]: 0.453 | Rq mmu-miR-125b-3p-002378 [2]: 0.561 | Rq mmu-miR-125b-5p-000449 [2]: 0.676 | Rq mmu-miR-126-3p-002228 [2]: 0.697 | Rq mmu-miR-126-5p-000451 [2]: 0.682 | Rq mmu-miR-127-000452 [2]: 1.382 | Rq mmu-miR-128a-002216 [2]: 0.871 | Rq mmu-miR-130a-000454 [2]: 0.758 | Rq mmu-miR-130b#-002460 [2]: 0.443 | Rq mmu-miR-130b-000456 [2]: 0.757 | Rq mmu-miR-133a-002246 [2]: 0.942 | Rq mmu-miR-134-001186 [2]: 1.922 | Rq mmu-miR-136-002511 [2]: 0.705 | Rq mmu-miR-138#-002554 [2]: 0.214 | Rq mmu-miR-140-001187 [2]: 0.775 | Rq mmu-miR-142-3p-000464 [2]: 0.485 | Rq mmu-miR-142-5p-002248 [2]: 0.438 | Rq mmu-miR-143-002249 [2]: 0.742 | Rq mmu-miR-145-002278 [2]: 0.694 | Rq mmu-miR-146a-000468 [2]: 0.397 | Rq mmu-miR-146b#-002453 [2]: 0.088 | Rq mmu-miR-146b-001097 [2]: 0.555 | Rq mmu-miR-148a-000470 [2]: 0.602 | Rq mmu-miR-148b-000471 [2]: 0.512 | Rq mmu-miR-150#-002570 [2]: 0.297 | Rq mmu-miR-150-000473 [2]: 0.516 | Rq mmu-miR-151-3p-001190 [2]: 0.877 | Rq mmu-miR-152-000475 [2]: 0.721 | Rq mmu-miR-154-000477 [2]: 0.606 | Rq mmu-miR-155-002571 [2]: 0.742 | Rq mmu-miR-181a-000480 [2]: 0.728 | Rq mmu-miR-181c-000482 [2]: 0.624 | Rq mmu-miR-185-002271 [2]: 0.818 | Rq mmu-miR-186-002285 [2]: 0.866 | Rq mmu-miR-191-002299 [2]: 0.771 | Rq mmu-miR-193#-002577 [2]: 0.799 | Rq mmu-miR-195-000494 [2]: 0.491 | Rq mmu-miR-199a-3p-002304 [2]: 0.844 | Rq mmu-miR-199b-001131 [2]: 0.771 | Rq mmu-miR-200c-002300 [2]: 0.508 | Rq mmu-miR-203-000507 [2]: 0.575 | Rq mmu-miR-204-000508 [2]: 0.722 | Rq mmu-miR-210-000512 [2]: 0.759
